Laboratory results published in article PMC10254444, “Targeting Myeloperoxidase Activity and Neutrophil ROS Production to Modulate Redox Process: Effect of Ellagic Acid and Analogues” (Molecules, 2023).

Key:
[1] = DPPH radical scavenging assay
Description: The DPPH assay was performed according to the method developed by Brand-Williams et al., though slightly modified. A solution of 1 mM DPPH in absolute methanol was stirred for 40 min. Absorbance of the solution was adjusted to 0.650 ± 0.020 at 517 nm using fresh absolute methanol. For replicates, the DPPH assay was performed using a microplate reader. For this, 2 µL of EA taken as a standard or sample (EA analogue) were mixed with 198 µL of DPPH solution and incubated for 30 min in the dark covered with aluminum foil. When reacting with an antioxidant, the DPPH• radical is converted into DPPH, and its color changes from purple to yellow. The antioxidant effect may be easily evaluated by observing the decrease in visible absorption. The absorbance decrease was monitored at 510 nm for 30 min with a Multiskan Ascent 96-plate reader (ThermoLabsystem, Finland). A control consisted of 2 µL of DMSO in 198 µL of DPPH solution. A similar formula (Equation (1)) was applied to determine the DPPH radical-scavenging activity.

[2] = ABTS radical cation assay
Description: The ABTS assay was based on the method described by Re et al.. For the generation of ABTS^•+ radicals, sodium persulfate (2.45 mM) aqueous solution was mixed with ABTS (7 mM) and incubated overnight in the dark to obtain a dark-colored solution. Stock solution of ABTS^•+ was then diluted by adding pure methanol (100%) to obtain an absorbance of 0.70 (±0.02) at 734 nm at 30 °C. To obtain more repetition, the ABTS assay was performed using a microplate reader (ThermoLabsystem, Finland). An aliquot of 2 µL of the tested compound (EA or analogue) was added to 198 µL of ABTS^•+, and the decrease in absorbance was monitored at 740 nm after 30 min [32]. During this reaction, the blue-green ABTS radical cation is converted back into its colorless neutral form in the presence of the potential antioxidant molecule. A control consisted of 2 µL of DMSO in 198 µL of ABTS^•+ solution. The reducing capacity was determined according to the formula:% inhibition = (Acontrol − ASample) × 100/AControl(1)

[3] = target: T1, Horseradish peroxidase (HRP) (Armoracia rusticana, UniProt P00433); assay: HRP-catalyzed oxidation of L012 (chemiluminescence); type: biochemical
T1 construct: purchased Merck (Darmstadt, Germany)
T1 sequence (P00433 31-338 limits assumed): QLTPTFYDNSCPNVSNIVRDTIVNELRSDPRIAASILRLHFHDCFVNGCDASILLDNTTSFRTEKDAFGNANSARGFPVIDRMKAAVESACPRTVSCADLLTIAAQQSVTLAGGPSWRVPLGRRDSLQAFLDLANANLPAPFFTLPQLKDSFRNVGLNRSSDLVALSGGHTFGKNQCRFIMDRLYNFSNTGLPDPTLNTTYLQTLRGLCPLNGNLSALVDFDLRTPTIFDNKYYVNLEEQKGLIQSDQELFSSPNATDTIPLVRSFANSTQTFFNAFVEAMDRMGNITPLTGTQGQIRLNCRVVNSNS
Description: […] (HRP) reacts with hydrogen peroxide (H2O2), yielding “compound I (HRP^+.-Fe (IV=O))”, which is a reactive intermediate of HRP that is able to oxidize any potential reducing agent. Briefly, 2 μL of compound or reference molecule (ellagic acid) were incubated in phosphate buffer at pH 7.4 (153 μL, 50 mM) containing 5 μL HRP (100 µg/L), 20 μL L0-12 (10^−3 M), and 20 μL H2O2 (1 mM), and the chemiluminescence was immediately measured using a Fluoroskan Ascent 96-plate reader (ThermoLabsystem, Finland) at 37 °C for 30 min [32, 34]. The analysis was conducted in a 96-well microtiter plate. All the assays were performed in triplicate and repeated at least twice (N = 2; n = 6). The relative activity in terms of inhibition percentage of the tested compound or reference (ellagic acid) was compared to a control in the presence of DMSO taken as a solvent. The inhibition percentage was calculated using a similar formula (Equation (1)) as described above.

Solubility = type: physicochemical
[4] = in mice; cited from earlier work
[5] = design: method as in PMID 19015354; settings: after intraperitoneal injection; cited from earlier work
[6] = target: T2, human myeloperoxidase (MPO) (Homo sapiens, UniProt P05164); assay: MPO peroxidase activity, classical assay (Amplex Red); type: biochemical; settings: concentration range 0.01 to 10 µM
T2 construct: purchased Calbiochem Millipore
T2 sequence (P05164 49-745): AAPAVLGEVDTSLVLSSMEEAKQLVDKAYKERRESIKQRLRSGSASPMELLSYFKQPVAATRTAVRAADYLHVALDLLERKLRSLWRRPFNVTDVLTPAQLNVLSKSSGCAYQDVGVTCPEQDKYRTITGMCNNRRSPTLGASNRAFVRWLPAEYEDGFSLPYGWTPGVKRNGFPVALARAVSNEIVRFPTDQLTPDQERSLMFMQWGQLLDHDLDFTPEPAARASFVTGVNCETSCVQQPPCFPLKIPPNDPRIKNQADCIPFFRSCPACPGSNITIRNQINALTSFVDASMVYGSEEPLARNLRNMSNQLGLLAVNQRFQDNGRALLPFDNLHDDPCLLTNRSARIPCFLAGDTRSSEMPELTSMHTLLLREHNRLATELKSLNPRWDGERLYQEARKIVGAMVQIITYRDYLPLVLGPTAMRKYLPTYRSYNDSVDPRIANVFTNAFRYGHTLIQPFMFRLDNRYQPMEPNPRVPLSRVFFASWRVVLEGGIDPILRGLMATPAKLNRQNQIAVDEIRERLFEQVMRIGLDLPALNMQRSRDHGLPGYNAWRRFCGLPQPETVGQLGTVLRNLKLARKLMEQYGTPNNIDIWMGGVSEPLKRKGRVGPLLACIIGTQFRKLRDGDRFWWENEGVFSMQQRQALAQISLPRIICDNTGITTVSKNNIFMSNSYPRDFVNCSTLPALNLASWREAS
Description: (§1) Measurement of the peroxidase activity of MPO was performed by a classical enzymatic assay and by SIEFED assay as described by Nyssen et al.. The MPO solution was prepared with purified human MPO in dilution buffer (PBS 20 mM at pH 7.4 with 5 g/L BSA and 0.1% Tween-20). The solutions of EA or analogue, at final concentrations ranging from 10^−8 M to 10^−5 M, were incubated for 10 min with human MPO at a final concentration of 5 mU/mL before further use. The revelation of MPO activity was performed by monitoring the enzyme-catalyzed oxidation of Amplex Red in the presence of H2O2 (10 μM) and nitrite (4.5 mM) in phosphate buffer at pH 7.4.
After incubation, mixtures containing 100 μL of EA/analogue or vehicle (DMSO) and MPO were loaded into wells of microtiter plates (transparent), and the peroxidase activity was measured by adding 10 μL sodium nitrite solution (4.5 mM, final concentration) and 100 μL of the reactional solution containing 10 µM H2O2 and 40 µM Amplex® Red (AR) in phosphate buffer (50 mM) at pH 7.4. The oxidation of AR into the fluorescent resorufin adduct (λexcitation = 544 nm; λemission = 590 nm) was monitored for 30 min at 37 °C with a fluorescent plate reader (Fluoroskan Ascent, Fisher Scientific, Hampton, NH, USA). To eliminate the possibility of the artifact reactions that might arise from MPO activity or its natural substrate (H2O2), the direct reaction of ellagic acid or an analogue with H2O2 was performed in phosphate buffer (PBS) without the addition of human MPO.

[7] = target: T2, human myeloperoxidase (MPO); assay: MPO activity by SIEFED assay; type: biochemical
Description: as §1
Samples with MPO and various concentrations of […] were prepared and incubated as with the classical assay. An amount of 100 μL of each mixture (MPO alone or MPO + EA/DMSO) was then loaded into the wells of a SIEFED microtiter plate coated with rabbit polyclonal antibodies (3 μg/mL) against human MPO and incubated for 2 h at 37 °C in darkness. After washing up the wells, the activity of the enzyme captured by the antibodies was measured by adding 10 μL sodium nitrite solution (4.5 mM, final concentration) and 100 μL of a reactional solution containing 10 μM H2O2 and 40 μM Amplex® in phosphate buffer (50 mM) at pH 7.4. The oxidation of Amplex® Red into the fluorescent adduct resorufin (λexcitation = 544 nm; λemission = 590 nm) was monitored for 30 min at 37 °C with a fluorescent plate reader (Fluoroskan Ascent, Fisher Scientific). As for the MPO direct assay, a control assay set as the relative value of MPO activity was performed with purified MPO in the presence of PBS instead of the samples of EA or analogue dissolved in DMSO. In this SIEFED assay, MPO was bonded by the antibodies into the wells, and EA/analogue was discarded in the washing step before starting the measurement of the enzymatic activity. For both MPO assays, the inhibition percentage was calculated using a similar formula (Equation (1)) as described above.

Row | IC50 [1] [µM] | IC50 [2] [µM] | HRP inhibiting activity (in words) [3] | solubility (in words) (Solubility) | IC50 [3] [nM] | MPO inhibition (classical assay) [6] [%] | MPO activity, SIEFED assay (in words) [7] | Structure (SMILES) | oral bioavailability [4] [%] | curative activity in vivo (in words) [5]
1 | 5.64 ± 0.47 | 6.01 ± 0.26 | strong inhibiting activity | low hydrosolubility |  |  |  | O=c1oc2c(O)c(O)cc3c(=O)oc4c(O)c(O)cc1c4c23 [1a, 2,3,7,8-Tetrahydroxy [1]benzopyrano [5,4,3-cde][1]benzopyran-5,10-dione, reference compound] | < 30 | curative activity in vivo
2 | 2.86 ± 0.13 | 5.5 ± 0.16 |  |  | 2280 ± 110 |  |  | O=C(OCCCOC(=O)c1cc(O)c(O)c(O)c1)c1cc(O)c(O)c(O)c1 [compound 2] |  | 
3 | 5.78 ± 0.13 | 5.52 ± 0.34 |  |  | 3190 ± 70 | 98 |  | O=C(OCCCOC(=O)c1cc(O)c(O)c(O)c1)c1cc(O)cc(O)c1 [compound 3, 3-((3,5-dihydroxybenzoyl)oxy)propyl 3,4,5-trihydroxybenzoate] |  | 
4 | 3.36 ± 0.25 | 5.77 ± 0.01 |  |  | 2840 |  |  | O=C(OCCOC(=O)c1cc(O)c(O)c(O)c1)c1cc(O)c(O)c(O)c1 [compound 4] |  | 
5 | 4.24 ± 0.36 | 5.48 ± 0.23 |  |  | 3730 ± 210 |  |  | O=C(OCCCOC(=O)c1cc(O)c(O)c(O)c1)c1ccc(O)c(O)c1 [compound 5, 3-((3,4-dihydroxybenzoyl)oxy)propyl 3,4,5-trihydroxybenzoate] |  | 
6 | 3.14 ± 0.72 | 4.68 ± 0.13 | reduced antioxidant effect |  | 5810 ± 490 | 94 | superior to ellagic acid | O=C(Nc1ccc(OC(=O)c2cc(O)c(O)c(O)c2)cc1)c1cc(O)c(O)c(O)c1 [compound 7, 4-(3,4,5-trihydroxybenzamido)phenyl 3,4,5-trihydroxybenzoate] |  | 
7 | 5.96 ± 0.06 | 6.97 ± 0.04 |  |  | 1480 ± 1170 |  |  | O=C(OCCCCOC(=O)c1cc(O)c(O)c(O)c1)c1cc(O)c(O)c(O)c1 [compound 8] |  | 
8 | 5.82 ± 0.35 | 6.34 ± 0.39 |  |  | 1810 ± 180 |  |  | O=C(NCCCOC(=O)c1cc(O)c(O)c(O)c1)c1cc(O)c(O)c(O)c1 [compound 9, 3-(3,4,5-trihydroxybenzamido) propyl 3,4,5-trihydroxybenzoate] |  | 
9 | 5.27 ± 0.29 | 6.22 ± 0.16 |  |  | 1020 ± 90 |  | superior to ellagic acid | O=C(Nc1cccc(OC(=O)c2cc(O)c(O)c(O)c2)c1)c1cc(O)c(O)c(O)c1 [compound 10, 3-(3,4,5-trihydroxybenzamido)phenyl 3,4,5-trihydroxybenzoate] |  | 
10 | 3.7 ± 0.45 | 5.86 ± 0.18 | very good inhibition |  | 3060 ± 70 |  |  | O=C(NCCCNC(=O)c1cc(O)c(O)c(O)c1)c1cc(O)c(O)c(O)c1 [compound 12] |  | 
11 | 4.91 ± 0.26 | 6 ± 0.31 |  |  | 5460 ± 10 |  |  | O=C(OCCCOC(=O)c1cc(O)c(O)c(O)c1)c1ccccc1 [compound 13, 3-(benzoyloxy)propyl 3,4,5-trihydroxybenzoate] |  | 
